In patent US5449592A, “Silver halide color photographic light sensitive material for color proof and method for preparing color proof using the same” (Konica Corporation, priority 1988, dated 1995):

Test: pKa of couplers, neutralization-titration method
Assay type: physicochemical
Conditions: neutralization-titration method (asterisk)
Text: (§1) In this invention, a pKa value means a common logarithmic value of the reciprocal of a proton-dissociation equilibrium constant K at the active site of a coupler.
As described in, for example, J.C.S., Perkin I, 809(1973) and 1768(1973), J. Phot. Sci., 22,49(1974), E. Pelizzrtti(3M, Italia), C. Saini(Toino Vniv.) and J. Phot. Sci., 13,248(1985) B. P. Brand (ICI), a pKa value can be measured in a spectrophotometric method or a neutralization-titration mehtod, using a suitable solvent such as a mixture of water and organic solvent. […]
Certain of couplers have plural dissociable protons. […] Among those values, however, each pKa value of this invention means a value measured in relation to making anionic the nucleus of a coupler capable of forming a dye upon coupling reaction with the oxidized product of a color developing agent.
Either of the above-described two measurement methods may be so selected out as to meet the characteristics of a coupler subjected to a measurement. […] Howerer, the difference in pKa value between a magenta coupler and yellow coupler used in the invention, i.e., a value of pKa 1-pKa 2, can be applied to the invention, provided that both of the pKa1 and pKa2 values are measured in one and the same method of the two.
In Table 1, pKa values with asterisks are values measured by the neutralization-titration method. […]
With CCCCCCCCCCCCCC(=O)Nc1ccc(Cl)c(NC2=NN(c3c(Cl)cc(Cl)cc3Cl)C(=O)C2)c1 [MC-1] the pKa was 10.07.

Test: pKa of couplers, spectrophotometric method
Assay type: physicochemical
Conditions: spectrophotometric method (no asterisk); 2-butoxyethanol and water (30:70)
Text: as §1
As described in, for example, J.C.S., Perkin I, 809(1973) and 1768(1973), J. Phot. Sci., 22,49(1974), E. Pelizzrtti(3M, Italia), C. Saini(Toino Vniv.) and J. Phot. Sci., 13,248(1985) B. P. Brand (ICI), a pKa value can be measured in a spectrophotometric method or a neutralization-titration mehtod, using a suitable solvent such as a mixture of water and organic solvent.
In the spectrophotometric method, a pka value of coupler is regarded as a pH value obtained in correspondence with the inflection point of a rerational curve obtained between the pH and absorbance of a coupler solution, utilizing the fact that there is a difference in absorbance between the coupler itself and the anion thereof.
To be more concrete, the above-mentioned coupler solution is prepared by the use of a mixture of 2-butoxyethanol and water (30:70) as a solvent. The concentration of the coupler solution is adjusted to the order of 1×10^-5 to 1×10^-2 M so that pKa values can readily be measured. The coupler solution is added with anhydrous potassium carbonate in an amount of 3 g per liter, and is further adjusted to be various pH values by adding hydrochloric acid and potassium hydroxide correspondingly. The spectral absorbance of each solution is then measured so as to obtain a relational curve made between the pH value and the spectral absorbance of each solution.
Certain of couplers have plural dissociable protons. In those cases, plural pKa values may be obtained. Among those values, however, each pKa value of this invention means a value measured in relation to making anionic the nucleus of a coupler capable of forming a dye upon coupling reaction with the oxidized product of a color developing agent.
Either of the above-described two measurement methods may be so selected out as to meet the characteristics of a coupler subjected to a measurement. When measuring one and the same coupler in the two methods, respectively, there are some differences between the resulted pKa values. Howerer, the difference in pKa value between a magenta coupler and yellow coupler used in the invention, i.e., a value of pKa 1-pKa 2, can be applied to the invention, provided that both of the pKa1 and pKa2 values are measured in one and the same method of the two.
In Table 1, pKa values with asterisks are values measured by the neutralization-titration method. The other valves without asterisk are measured by the spectrophotometric method.
Asterisks in Table 2 have the same mean as in Table 1.
In the case of CCCCOc1ccc(C(C)(C)CC(C)(C)C)cc1S(=O)(=O)CCCc1n[nH]c2c(Cl)c(C(C)(C)C)nn12 [M-33], the pKa is reported as 10.39.
Compound CCCCCCCCC(CCCCCC)CS(=O)(=O)CCc1n[nH]c2c(Cl)c(C)nn12 (stereo not drawn) [M-4] has a pKa of 9.11.
With CCCCOc1ccc(C(C)(C)CC(C)(C)C)cc1Sc1c(SCC)nn2c(CCNC(=O)C(CCCC)Oc3ccc(C(C)(C)CC)cc3C(C)(C)CC)n[nH]c12 (stereo not drawn) [M-49] the pKa was 9.43.
For CCCCC(Oc1ccc(C(C)(C)CC)cc1C(C)(C)CC)C(=O)Nc1ccc(CCc2n[nH]c3c(Cl)c(CC)nn23)cc1 (stereo not drawn) [M-16], the pKa was 10.30.
In the case of CCCCOc1ccc(NS(=O)(=O)c2cc(C(C)(C)CC(C)(C)C)ccc2OCCCC)cc1S(=O)(=O)Nc1ccc(CCCc2n[nH]c3c(Cl)c(C(C)(C)C)nn23)cc1 [M-44], the pKa is reported as 10.80.
Work on CCCCCCCCCCCCCCCCCCS(=O)(=O)CC(C)c1n[nH]c2c(Cl)c(C)nn12 (stereo not drawn) [M-3] yielded a pKa of 8.99.
In the case of CCCCCCCCCCCCOc1ccc(S(=O)(=O)Nc2ccc(CCCc3n[nH]c4c(Cl)c(C)nn34)cc2)cc1 [M-1], the pKa is reported as 10.24.
For CCCCCCCCCCCCCCCCS(=O)(=O)CCC(C)c1n[nH]c2c(Cl)c(C(C)C)nn12 (stereo not drawn) [M-22], the pKa was 9.70.
In the case of CCCCCCCCC(CCCCCC)CS(=O)(=O)CCc1nn2c(C)n[nH]c2c1Cl (stereo not drawn) [M-9], the pKa is reported as 9.18.
CCCCCCCCCCC(Oc1ccc(C(C)(C)c2ccc(O)cc2)cc1)C(=O)Nc1ccc(S(=O)(=O)CCc2n[nH]c3c(Cl)c(C)nn23)cc1 (stereo not drawn) [M-12] showed a pKa of 9.71.
CCC(C)(C)c1ccc(OCC(=O)Nc2ccc(S(=O)(=O)CC(C)(C)c3n[nH]c4c(Cl)c(C(C)(C)C)nn34)cc2)c(C(C)(C)CC)c1 [M-40] gave a pKa of 9.90.
With CCC(C)(C)c1ccc(OCCCC(=O)Nc2ccc(Cl)c(NC(=O)C(Oc3ccc(S(=O)(=O)c4ccc(OCc5ccccc5)cc4)cc3)C(=O)C(C)(C)C)c2)c(C(C)(C)CC)c1 (stereo not drawn) [Y-8] the pKa was 8.60.
Compound CCCCCCCCOc1ccc(C)cc1S(=O)(=O)CCS(=O)(=O)CCC(C)c1n[nH]c2c(Cl)c(C(C)C)nn12 (stereo not drawn) [M-26] has a pKa of 9.68.
Work on CCCCOc1ccc(C(C)(C)CC(C)(C)C)cc1S(=O)(=O)CCCc1n[nH]c2c(Cl)c(C(C)C)nn12 [M-21] yielded a pKa of 10.07.
